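These data come from cells grown in 96-well plates and exposed to compound for 48 hours at five concentrations. TGI denotes the concentration required for complete inhibition of growth.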

Among the test systems are SW-620 colon; UACC-257 melanoma; LOX IMVI melanoma; DU-145 prostate; SN12C renal; NCI-H522 lung; M14 melanoma; NCI-H23 lung; SF-539 CNS; SK-MEL-2 melanoma; PC-3 prostate; HL-60(TB) leukemia; ACHN renal; OVCAR-3 ovarian; SK-OV-3 ovarian; IGROV1 ovarian; HCT-15 colon; SK-MEL-5 melanoma; HT29 colon; HOP-92 NSCLC.
What all share (assay): DTP human tumour cell line panel, 48 h

For orientation: TGI means the concentration at which net growth stops. Read a high TGI as lower sensitivity of the cells. Consider `Oc1cccc(-c2nc3cc(F)ccc3s2)c1`, for which the TGI with SW-620 colon is above 100 µM; in the experiment with UACC-257 melanoma, 34.3 µM; in the experiment on LOX IMVI melanoma, 34.7 µM; in the experiment with DU-145 prostate, 57.9 µM; with SN12C renal it was 82.7 µM; with NCI-H522 lung, 25.7 µM. Also, the total growth inhibition concentration (TGI) was 37.8 µM in the experiment with M14 melanoma; 70.7 µM in the experiment on NCI-H23 lung; 55.8 µM in the experiment on SF-539 CNS; 43.2 µM with SK-MEL-2 melanoma; 65 µM in the experiment with PC-3 prostate; 61 µM in the experiment on HL-60(TB) leukemia. Further, the TGI in the experiment with ACHN renal is 71.3 µM; with OVCAR-3 ovarian, 43.4 µM; with SK-OV-3 ovarian, 70 µM; with IGROV1 ovarian, 33.1 µM; with HCT-15 colon, 56.4 µM; with SK-MEL-5 melanoma it was 25 µM. In addition, the TGI in the experiment on HT29 colon was 31.7 µM.

`CSc1ncnc2c1ncn2CCC#N`: the total growth inhibition concentration (TGI) with SW-620 colon, in the experiment with UACC-257 melanoma, in the experiment with LOX IMVI melanoma, with DU-145 prostate, in the experiment on SN12C renal and in the experiment on NCI-H522 lung was above 100 µM throughout. Further, the TGI in the experiment with M14 melanoma, in the experiment with NCI-H23 lung, in the experiment on SF-539 CNS, in the experiment on HOP-92 NSCLC, with PC-3 prostate and with HL-60(TB) leukemia was above 100 µM each time. The TGI in the experiment with ACHN renal, in the experiment on OVCAR-3 ovarian, in the experiment on SK-OV-3 ovarian, with IGROV1 ovarian, in the experiment on SK-MEL-5 melanoma and in the experiment with HT29 colon was above 100 µM in each case.

For the compound `CCC1(C)C=Cc2c(cc(O)c3c(=O)c4ccccc4n(C)c23)O1` (stereo not given), the concentration for total growth inhibition (TGI) with SW-620 colon, in the experiment on UACC-257 melanoma, with LOX IMVI melanoma, with DU-145 prostate, in the experiment on SN12C renal and in the experiment on NCI-H522 lung was above 10 µM throughout. For the same compound, the TGI in the experiment with M14 melanoma, with NCI-H23 lung, in the experiment with SF-539 CNS, in the experiment on SK-MEL-2 melanoma, with HOP-92 NSCLC and in the experiment on PC-3 prostate was above 10 µM in each case. Also, the concentration for total growth inhibition (TGI) in the experiment with ACHN renal, with OVCAR-3 ovarian, in the experiment on SK-OV-3 ovarian, in the experiment with IGROV1 ovarian, in the experiment with HCT-15 colon and with SK-MEL-5 melanoma was above 10 µM in each case. Further, the TGI in the experiment on HT29 colon is above 10 µM.

Consider `CC(=O)NC1c2ccccc2C(C)(C)C12CCC1(CC2)OCCO1` (stereo not given), for which the TGI with SW-620 colon is above 100 µM; in the experiment with UACC-257 melanoma it was above 100 µM; in the experiment on LOX IMVI melanoma, above 100 µM; with DU-145 prostate, above 100 µM; in the experiment on SN12C renal, above 10 µM; with NCI-H522 lung it was above 100 µM. For the same compound, the concentration for total growth inhibition (TGI) in the experiment on M14 melanoma, with NCI-H23 lung, with SF-539 CNS, in the experiment with SK-MEL-2 melanoma, with PC-3 prostate and with HL-60(TB) leukemia was above 100 µM throughout. For the same compound, the total growth inhibition concentration (TGI) in the experiment with ACHN renal was above 100 µM; with SK-OV-3 ovarian, above 10 µM; with IGROV1 ovarian, above 100 µM; in the experiment with HCT-15 colon, above 100 µM; in the experiment on SK-MEL-5 melanoma, above 100 µM; in the experiment with HT29 colon, above 100 µM.

In the case of `CCOC(=O)C1C2CCC1CC(=NNc1ccc([N+](=O)[O-])cc1[N+](=O)[O-])C2` (stereo not given), the TGI in the experiment on SW-620 colon, in the experiment on UACC-257 melanoma, in the experiment on LOX IMVI melanoma, in the experiment with DU-145 prostate, in the experiment with SN12C renal and in the experiment with NCI-H522 lung was above 50 µM each time. Moreover, the TGI in the experiment on M14 melanoma is above 50 µM; in the experiment on NCI-H23 lung, above 50 µM; in the experiment on SF-539 CNS, above 50 µM; with SK-MEL-2 melanoma, above 50 µM; with HOP-92 NSCLC, 48.7 µM; in the experiment with PC-3 prostate, above 50 µM. The TGI with ACHN renal, with OVCAR-3 ovarian, in the experiment with SK-OV-3 ovarian, with IGROV1 ovarian, in the experiment with HCT-15 colon and in the experiment on SK-MEL-5 melanoma was above 50 µM in each case. For the same compound, the TGI in the experiment on HT29 colon is above 50 µM.

Turning to `O=C1C(=Cc2ccccc2O)N=C(c2ccccc2)N1n1c(-c2ccccc2)nc2ccccc2c1=O`, the TGI was above 100 µM with SW-620 colon; 69.1 µM with UACC-257 melanoma; above 100 µM with LOX IMVI melanoma; above 100 µM with DU-145 prostate; above 100 µM in the experiment on SN12C renal; 67.1 µM with NCI-H522 lung. Also, the concentration for total growth inhibition (TGI) in the experiment with M14 melanoma was 57.1 µM; in the experiment with NCI-H23 lung, 89.5 µM; in the experiment with SF-539 CNS, 50 µM; in the experiment on PC-3 prostate, above 100 µM; in the experiment with HL-60(TB) leukemia, 31.9 µM; in the experiment on ACHN renal, 89.3 µM. The TGI is above 100 µM with SK-OV-3 ovarian; above 100 µM in the experiment with IGROV1 ovarian; above 100 µM with HCT-15 colon; 41.7 µM in the experiment with SK-MEL-5 melanoma; above 100 µM with HT29 colon.

For the compound `CCNC(=O)Nc1cccc(NC(=O)NCC)n1`, the concentration for total growth inhibition (TGI) with SW-620 colon, in the experiment with UACC-257 melanoma, in the experiment with DU-145 prostate, in the experiment with SN12C renal, with NCI-H522 lung and in the experiment with M14 melanoma was above 100 µM each time. Besides, the TGI in the experiment on NCI-H23 lung, with SF-539 CNS, in the experiment with HOP-92 NSCLC, in the experiment with PC-3 prostate, in the experiment with HL-60(TB) leukemia and in the experiment on ACHN renal was above 100 µM in each case. Moreover, the total growth inhibition concentration (TGI) in the experiment with OVCAR-3 ovarian, in the experiment on SK-OV-3 ovarian, in the experiment with IGROV1 ovarian, in the experiment on SK-MEL-5 melanoma and in the experiment on HT29 colon was above 100 µM throughout.

Regarding `CCC(=O)ONC(=O)Cn1ccc([N+](=O)[O-])n1`, the TGI with SW-620 colon, in the experiment with UACC-257 melanoma, in the experiment with LOX IMVI melanoma, with DU-145 prostate, with SN12C renal and in the experiment on NCI-H522 lung was above 100 µM throughout. In addition, the TGI in the experiment on M14 melanoma, in the experiment with NCI-H23 lung, with SF-539 CNS, with HOP-92 NSCLC, with PC-3 prostate and in the experiment on HL-60(TB) leukemia was above 100 µM each time. In addition, the concentration for total growth inhibition (TGI) in the experiment on ACHN renal, in the experiment with OVCAR-3 ovarian, in the experiment with SK-OV-3 ovarian, in the experiment on IGROV1 ovarian, in the experiment with SK-MEL-5 melanoma and in the experiment with HT29 colon was above 100 µM each time.

As for `CC(C)=CCNc1ncnc2c1ncn2CCC#N`, the total growth inhibition concentration (TGI) in the experiment with SW-620 colon, in the experiment on LOX IMVI melanoma, with DU-145 prostate, with SN12C renal, with NCI-H522 lung and in the experiment with M14 melanoma was above 100 µM in each case. The total growth inhibition concentration (TGI) in the experiment with NCI-H23 lung, in the experiment on SF-539 CNS, in the experiment on HOP-92 NSCLC, in the experiment with PC-3 prostate, in the experiment with HL-60(TB) leukemia and in the experiment on ACHN renal was above 100 µM throughout. The concentration for total growth inhibition (TGI) in the experiment on OVCAR-3 ovarian, in the experiment on SK-OV-3 ovarian, in the experiment with IGROV1 ovarian, in the experiment with HCT-15 colon, with SK-MEL-5 melanoma and with HT29 colon was above 100 µM each time.

As for `N#CC1=C(N)N(c2ccccc2)C(c2ccccc2)C1(C#N)C#N` (stereo not given), the TGI in the experiment with SW-620 colon turned out to be 37.2 µM; in the experiment with UACC-257 melanoma it was 34.9 µM; in the experiment with LOX IMVI melanoma it was 30.3 µM; in the experiment with DU-145 prostate, 32.9 µM; with SN12C renal, 36.6 µM; with NCI-H522 lung, 34.9 µM. The concentration for total growth inhibition (TGI) with M14 melanoma was found to be 44.9 µM; in the experiment with NCI-H23 lung, 44.8 µM; in the experiment on SF-539 CNS, 32.5 µM; with SK-MEL-2 melanoma, 42.9 µM; with PC-3 prostate, 40.3 µM; in the experiment on HL-60(TB) leukemia, 43.9 µM. The TGI in the experiment with ACHN renal was determined as 40.7 µM; in the experiment with OVCAR-3 ovarian it was 34.6 µM; in the experiment with SK-OV-3 ovarian it was 78.4 µM; in the experiment on IGROV1 ovarian it was 32 µM; with HCT-15 colon, 51.1 µM; with SK-MEL-5 melanoma, 26.9 µM. Also, in the experiment on HT29 colon, the concentration for total growth inhibition (TGI) came out at 30.2 µM.

For `Nc1ccc(S(=O)(=O)Nc2nccs2)cc1`, the TGI in the experiment with SW-620 colon, with UACC-257 melanoma, in the experiment with LOX IMVI melanoma, in the experiment with DU-145 prostate, in the experiment with SN12C renal and in the experiment on NCI-H522 lung was above 100 µM throughout. The TGI in the experiment with M14 melanoma, in the experiment on NCI-H23 lung, with SF-539 CNS, in the experiment with SK-MEL-2 melanoma, in the experiment with PC-3 prostate and in the experiment on HL-60(TB) leukemia was above 100 µM each time. In addition, the concentration for total growth inhibition (TGI) with ACHN renal, in the experiment on OVCAR-3 ovarian, in the experiment with SK-OV-3 ovarian, with IGROV1 ovarian, in the experiment with HCT-15 colon and in the experiment on SK-MEL-5 melanoma was above 100 µM in each case. This compound also came in with a total growth inhibition concentration (TGI) in the experiment on HT29 colon above 100 µM.

As for `CC(C)(C)C(=O)CC1=Nc2ccccc2SC1(O)CC(=O)C(C)(C)C` (stereo not given), the concentration for total growth inhibition (TGI) in the experiment with SW-620 colon was above 100 µM; in the experiment on UACC-257 melanoma, above 100 µM; in the experiment with LOX IMVI melanoma, 49.4 µM; in the experiment with DU-145 prostate it was above 100 µM; in the experiment on SN12C renal, 73.2 µM; with NCI-H522 lung it was 34.4 µM. Further, the total growth inhibition concentration (TGI) with M14 melanoma is 81.9 µM; in the experiment with NCI-H23 lung, 98.7 µM; in the experiment on SF-539 CNS, 61.3 µM; in the experiment on SK-MEL-2 melanoma, 32 µM; in the experiment with PC-3 prostate, 73.6 µM; in the experiment on HL-60(TB) leukemia it was 80.2 µM. The TGI amounted to 70.2 µM in the experiment on ACHN renal; 75.3 µM in the experiment on OVCAR-3 ovarian; 53.6 µM in the experiment with SK-OV-3 ovarian; 61.2 µM in the experiment on IGROV1 ovarian; 52.8 µM in the experiment on HCT-15 colon; 62.7 µM in the experiment on SK-MEL-5 melanoma. The TGI in the experiment with HT29 colon stood at 31.5 µM.

The values are drawn from PubChem BioAssay (NCI).
